According to patent US9523693B2, “Methods for determining ligand binding to a target protein using a thermal shift assay” (Biotarget Engagement Interest Group AB, priority 2011, dated 2016):

Tests used:
[1] = target: T1, thymidylate synthase (TS) (Homo sapiens, UniProt P04818); assay: Thermal shift in A549 cell lysate, Western blot, TS; assay type: binding; conditions: ligand at 10 times the described IC50
T1 construct: Lysate was prepared from cultured human adenocarcinoma cells (A549); endogenous in cells; host or cells: A549
Text: Cells were disrupted on ice in hypotonic buffer and with homogenisation. The suspensions were freeze-thawed multiple times and all insoluble aggregates and cell debris were pelleted by centrifugation after completed lysis.
The signal from the bound secondary antibody was detected by chemiluminescense and recorded with a CCD camera. The intensities were plotted to visualize the changes in melting temperature following ligand treatment.

p38α [2] = target: T2, p38α (Homo sapiens, UniProt Q16539); assay: Homogeneous AlphaScreen-based CETSA screen in HL-60 cells; assay type: cell-based; conditions: both screen concentrations, 10 and 50 μM, 50° C. 3 min
T2 construct: host or cells: HL-60
Protocol: HL-60 cells were expanded in cell culture medium to a density of approximately 1.5-2 million cells/ml. The cell suspension was collected and the cells transferred to 15 ml conical tubes. The tubes were then centrifuged at 300 g for 3 mins at room temperature and the media was discarded. The cell pellet was resuspended in media to a cell density of about 30 million cells/ml. […] The plates are sealed and stored. The Echo 550 acoustic liquid dispenser was used to place 20 nl of the 10 mM DMSO stock solution in each well of four separate Twin tec PCR plates in columns 1-11. […] The plates were shaken every 10 mins.
The plates were placed in a thermal cycler and heated for 3 mins at 50° C. and were then removed and placed in an aluminium block for 3 mins at room temperature.
140 μl of 1× PerkinElmer lysis buffer was added to all wells and the wells were mixed. 4 μl of the samples were transferred to quadrant one of the 384-well ProxiPlate. This was done for all 96-well plates. […] The chemiluminescence was read with a Envision plate reader and evaluated using data processing software as described previously.
The feasibility of applying the homogeneous assay for screen purposes was assessed by testing the homogeneous assay protocol to determine how this responds to the presence of a small set of test compounds taken from a diversity library. […]

p38α [3] = target: T2, p38α; assay: CETSA melting curve in HL-60 cells; assay type: cell-based; conditions: for apparent Tagg value (average±s.d.): 20 μM compound
Protocol: HL60 cells were expanded in cell culture medium to about 2 million cells per ml, where approximately 120 million cells were required to determine four melting curves. 15 ml of the 2 million HL60 cells/ml of suspension were added to four separate T75 flasks. […] The same volume of DMSO was added to the remaining flask as a control. The cell suspensions were mixed gently by pipetting. […] The cell suspension was then collected and cells were transferred to 15 ml conical tubes. Cell numbers were counted and cell viability assessed. The conical tubes were then centrifuged at 300 g for 3 minutes at room temperature to pellet the cells and the culture medium was discarded.
Cell pellets were then resuspended with 15 ml PBS and centrifuged for 3 minutes at 300 g at room temperature. 1 ml of PBS supplemented with protease inhibitors was added to each tube and the pellet resuspended. Each cell suspension was distributed into ten different 0.2 ml PCR tubes with 100 μl of cell suspension in each tube, with each of the ten tubes to be heated at a different temperature.
Immediately after hating, the tubes were removed and incubated at room temperature for 3 minutes. The samples were then snap-frozen.
The tubes were vortexed after being thawed and the cell lysates kept on ice after the last thawing. The cell lysates were then centrifuged at 20000 g for 20 minutes at 4° C. to pellet the cell debris. Finally, 90 μl of lysate was then transferred to a new tube for analysis.
Analysis was carried out using the alphascreen format. […] 4 μl of each solution was transferred from the PCR tubes to a separate well of a 384-well ProxiPlate. 5 μl of acceptor beads were added and the plate sealed with a Thermowell plate seal and agitated for 5 minutes at 500 rpm. The plate was then incubated for 2 hours at room temperature. 2 μl of donor beads were then added an the plate sealed and centrifuged at 100 g at room temperature for 10 seconds. The plate was then agitated for 5 minutes at 500 rpm. The plate was incubated at room temperature for at least 2 hours and chemiluminescence read using an Envision plate reader. […]

[4] = target: T3, human soluble PIK3C3 protein (Homo sapiens, UniProt Q8NEB9); assay: Thermal shift (lysis/filtration blot) in E. coli cells overexpressing PIK3C3 construct; assay type: cell-based; conditions: 1 mM Compound 15e or 500 μM Wortmannin, without ligand ca +55°
T3 construct: expressed in transfected cells; host or cells: E. coli
Text: An expression construct of human soluble PIK3C3 protein in an expression vector with N-terminal His-tag was used to investigate a possible increase in melting temperature of the PIK3C3 construct after addition and binding of either of two PIK3C3 specific inhibitors; Wortmannin and Compound 15e. After treatment with or without one of the two inhibitors the cells expressing the PIK3C3 constructs were exposed to a panel of increasing temperatures and after each temperature step the cells expressing the proteins were spotted onto a “lysis/filtration sandwich” soaked in lysis buffer. By using this lysis/filtration step on the “lysis/filtration sandwich” the soluble protein (up to the construct's specific melting temperature) could be detected on a capturing nitrocellulose membrane as dark spots, whereas precipitated protein (i.e., above its specific melting temperature) was not able to pass through the filter membrane and could therefore not be detected. Melting temperatures of constructs treated with Compound 15e or Wortmannin were compared with those of untreated samples. […]

[5] = target: methionine-aminopeptidase-2 (Homo sapiens, UniProt P50579); assay: Thermal shift in human K562 cell lysate, Western blot; assay type: binding
Protocol: (§1) Studies were done on cells from two different systems: a) intact cow liver biopsies incubated with TNP-470 and b) human cultured cells incubated with TNP-470. […] After treatment with or without the inhibitor, the samples were prepared and subjected to an array of increasing temperatures. The precipitated protein fraction was pelleted by means of centrifugation and the supernatant from each temperature step was analysed on gels and by Western blot. Melting temperatures of proteins treated with TNP-470 were compared to those of untreated samples.
(§2) Lysate was prepared for cultured human cells (K562) and cow liver samples by disruption on ice in hypotonic buffer and with homogenisation. The suspensions were freeze-thawed multiple times and all insoluble aggregates and cell debris were pelleted by centrifugation after completed lysis. The lysate of each cell type was divided into two aliquots, where one was supplemented with TNP-470 (dissolved in pure DMSO) and the other with an equivalent volume of pure DMSO. […]
(§3) Next, a series of temperatures were applied to different samples ranging between +56° C. to +88° C. with 2 or 4° C. increments and a 3 minute hold at each step. […] The signal from the bound secondary antibody was detected by chemiluminescense and recorded with a CCD camera. […]

[6] = target: T4, methionine-aminopeptidase-2 (Bos taurus, UniProt Q3ZC89); assay: Thermal shift in cow liver lysate, Western blot; assay type: binding
T4 construct: Lysate was prepared for cultured human cells (K562) and cow liver samples; from tissue; host or cells: cow liver
Protocol: as §1, §2, §3

p38α [7] = target: T2, p38α; assay: Isothermal dose-response fingerprint (ITDRF CETSA) in HL-60 cells; assay type: cell-based; conditions: HL-60 cells heated at 50° C.; western blot and AlphaScreen
Protocol: Thus, in this method, HL-60 cells were expanded in cell culture medium to a cell density of 1-2 million cells/ml using standard cell culture. The cell suspension was collected and transferred to 15 ml conical tubes. The conical tubes were centrifuged at 300 g for 3 minutes at room temperature and the medium discarded. The cell pellet was resuspended in fresh media to provide a cell density of approximately 40 million cells/ml. […] 100 DMSO was placed in columns 2-12. The stock solutions were serially diluted by transferring 50 from columns 1 to 2, mixing and then by continuing this process one column at a time until column 11, where a final 50 is removed and discarded. Column 12 acted as a control. A second plate was prepared as a backup by splitting the serial dilutions into the second plate. All the serially diluted solutions were diluted 50 fold by adding cell culture media. 5 μl of all diluted compound solutions were then transferred to a Twin.tec PCR plate. […] The plate was shaken every 10 minutes.
The PCR plate was then incubated in a thermal cycler (Techne) and heated for 3 minutes at 50° C. The plate was then placed in an aluminium block for 3 minutes to ensure consistent cooling.
Detection was then carried out using the AlphaScreen method. […] The Luminescence was read using an Envision plate reader and data software (e.g. GraphPad Orism) was used to evaluate the luminescence data. […]

[8] = target: V600E variant B-raf protein (Homo sapiens, UniProt P15056, V600E); conditions: A375 lysate
Protocol: (§4) Lysate was prepared from cultured human A375 cells containing the V600E substitution in B-raf and K562, containing the wild type version thereof. Cells were disrupted on ice in hypotonic buffer and with homogenisation. The suspensions were freeze-thawed multiple times and all insoluble aggregates and cell debris were pelleted by centrifugation after completed lysis. The supernatants containing optically clear cytosolic fraction were each aliquoted into two tubes where each tube contained either the ligand SB590885 dissolved in DMSO or pure DMSO for control. The samples were incubated and subsequently aliquoted into 8-tube PCR strips in fractions of 50 microliters. A series of temperatures were applied to the different samples ranging between +44° C. to +62° C. with 2° C. increments and a 3 minute hold at each temperature. Following heating, the samples were cooled and the precipitated protein pelleted by centrifugation. 20 microliter of each supernatant was removed and supplemented with gel loading buffer and fully denatured by heating. The samples were loaded on a separating gel, which after full run time was blotted onto a nitrocellulose membrane. The membrane was washed and blocked with blocking reagent and probed with primary and secondary antibodies. The signal from the bound secondary antibody was detected by chemiluminescense and recorded with a CCD camera. […]

wild-type B-raf protein = wild-type B-raf protein (Homo sapiens, UniProt P15056); conditions: K562 lysate
Protocol: as §4

T2 sequence (Q16539 whole entry): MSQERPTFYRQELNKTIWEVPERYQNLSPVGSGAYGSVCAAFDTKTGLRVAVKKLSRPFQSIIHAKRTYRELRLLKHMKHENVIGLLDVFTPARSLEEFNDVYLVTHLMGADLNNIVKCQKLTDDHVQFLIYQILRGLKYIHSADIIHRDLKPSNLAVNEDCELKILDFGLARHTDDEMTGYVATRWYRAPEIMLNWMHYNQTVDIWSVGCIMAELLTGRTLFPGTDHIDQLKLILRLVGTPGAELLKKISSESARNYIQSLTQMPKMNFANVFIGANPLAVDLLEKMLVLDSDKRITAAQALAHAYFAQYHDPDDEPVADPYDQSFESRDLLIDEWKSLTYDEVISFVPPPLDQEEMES
T4 sequence (Q3ZC89 whole entry): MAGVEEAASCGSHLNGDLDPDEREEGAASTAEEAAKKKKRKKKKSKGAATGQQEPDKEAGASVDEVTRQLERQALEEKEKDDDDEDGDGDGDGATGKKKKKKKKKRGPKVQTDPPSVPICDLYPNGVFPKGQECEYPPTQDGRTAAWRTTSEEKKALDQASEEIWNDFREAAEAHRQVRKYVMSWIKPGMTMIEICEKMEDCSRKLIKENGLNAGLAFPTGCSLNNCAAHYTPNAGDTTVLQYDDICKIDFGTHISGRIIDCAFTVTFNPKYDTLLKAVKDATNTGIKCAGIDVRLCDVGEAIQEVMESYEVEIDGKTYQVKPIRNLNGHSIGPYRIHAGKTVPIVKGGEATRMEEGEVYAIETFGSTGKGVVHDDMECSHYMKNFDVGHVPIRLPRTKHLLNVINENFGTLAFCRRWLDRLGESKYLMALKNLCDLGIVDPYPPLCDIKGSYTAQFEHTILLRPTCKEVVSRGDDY
Sequence of methionine-aminopeptidase-2 (Homo sapiens, UniProt P50579) (P50579 whole entry): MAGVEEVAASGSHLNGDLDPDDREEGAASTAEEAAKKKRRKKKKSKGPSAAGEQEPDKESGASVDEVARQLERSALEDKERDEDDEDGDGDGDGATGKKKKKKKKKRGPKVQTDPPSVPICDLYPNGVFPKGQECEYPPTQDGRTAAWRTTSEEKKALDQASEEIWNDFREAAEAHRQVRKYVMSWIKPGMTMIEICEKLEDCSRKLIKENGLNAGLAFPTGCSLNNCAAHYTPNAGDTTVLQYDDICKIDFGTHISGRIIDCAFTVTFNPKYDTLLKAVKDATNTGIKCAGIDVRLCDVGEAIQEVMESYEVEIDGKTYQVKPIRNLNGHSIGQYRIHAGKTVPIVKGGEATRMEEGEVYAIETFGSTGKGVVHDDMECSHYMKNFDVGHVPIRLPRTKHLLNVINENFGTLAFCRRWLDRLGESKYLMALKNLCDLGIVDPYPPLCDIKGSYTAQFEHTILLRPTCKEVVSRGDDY
T3 sequence (Q8NEB9 whole entry): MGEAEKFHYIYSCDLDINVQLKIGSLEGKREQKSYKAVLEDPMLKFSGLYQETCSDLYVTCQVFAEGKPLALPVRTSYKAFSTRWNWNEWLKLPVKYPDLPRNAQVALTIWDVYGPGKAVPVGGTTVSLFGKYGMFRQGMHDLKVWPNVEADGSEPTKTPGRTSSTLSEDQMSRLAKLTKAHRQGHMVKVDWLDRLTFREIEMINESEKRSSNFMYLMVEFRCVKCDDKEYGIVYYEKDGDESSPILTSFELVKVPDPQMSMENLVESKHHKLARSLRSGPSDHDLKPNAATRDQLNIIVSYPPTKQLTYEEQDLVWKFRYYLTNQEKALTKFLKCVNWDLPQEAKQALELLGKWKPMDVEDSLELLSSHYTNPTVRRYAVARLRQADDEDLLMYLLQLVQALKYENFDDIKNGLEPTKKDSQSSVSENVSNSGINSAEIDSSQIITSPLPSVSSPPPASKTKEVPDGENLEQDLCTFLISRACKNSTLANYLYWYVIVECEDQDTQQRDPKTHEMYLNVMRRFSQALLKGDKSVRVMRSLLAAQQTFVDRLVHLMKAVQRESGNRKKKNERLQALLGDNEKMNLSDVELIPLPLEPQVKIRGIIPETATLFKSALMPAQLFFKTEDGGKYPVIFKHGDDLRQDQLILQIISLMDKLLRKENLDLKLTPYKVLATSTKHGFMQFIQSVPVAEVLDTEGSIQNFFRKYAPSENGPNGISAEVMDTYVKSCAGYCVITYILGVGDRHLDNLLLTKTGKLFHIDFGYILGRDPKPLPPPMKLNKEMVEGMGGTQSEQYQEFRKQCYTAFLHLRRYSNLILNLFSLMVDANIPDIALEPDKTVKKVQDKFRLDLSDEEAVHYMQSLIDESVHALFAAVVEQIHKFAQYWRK
Sequence of V600E variant B-raf protein (P15056 whole entry V600E): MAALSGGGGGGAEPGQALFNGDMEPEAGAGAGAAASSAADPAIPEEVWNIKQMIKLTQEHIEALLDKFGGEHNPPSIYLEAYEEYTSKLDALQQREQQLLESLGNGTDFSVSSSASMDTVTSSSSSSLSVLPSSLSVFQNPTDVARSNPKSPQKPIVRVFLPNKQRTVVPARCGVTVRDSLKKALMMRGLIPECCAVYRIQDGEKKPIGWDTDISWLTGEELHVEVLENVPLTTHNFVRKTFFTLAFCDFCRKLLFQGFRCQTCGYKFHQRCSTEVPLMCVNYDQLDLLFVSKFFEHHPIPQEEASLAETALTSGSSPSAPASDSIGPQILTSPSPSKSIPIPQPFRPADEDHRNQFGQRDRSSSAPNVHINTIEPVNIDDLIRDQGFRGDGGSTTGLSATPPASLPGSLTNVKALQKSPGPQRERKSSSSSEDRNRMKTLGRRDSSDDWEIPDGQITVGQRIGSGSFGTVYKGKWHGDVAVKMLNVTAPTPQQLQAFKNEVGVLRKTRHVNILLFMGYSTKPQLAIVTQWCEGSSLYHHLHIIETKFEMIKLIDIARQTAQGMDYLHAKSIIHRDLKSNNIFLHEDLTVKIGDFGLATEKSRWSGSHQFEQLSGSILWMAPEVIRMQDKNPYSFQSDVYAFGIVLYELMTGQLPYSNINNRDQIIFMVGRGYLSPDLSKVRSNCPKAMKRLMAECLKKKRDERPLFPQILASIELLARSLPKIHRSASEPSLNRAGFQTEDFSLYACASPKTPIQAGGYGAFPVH
T1 sequence (P04818 2-313 limits assumed): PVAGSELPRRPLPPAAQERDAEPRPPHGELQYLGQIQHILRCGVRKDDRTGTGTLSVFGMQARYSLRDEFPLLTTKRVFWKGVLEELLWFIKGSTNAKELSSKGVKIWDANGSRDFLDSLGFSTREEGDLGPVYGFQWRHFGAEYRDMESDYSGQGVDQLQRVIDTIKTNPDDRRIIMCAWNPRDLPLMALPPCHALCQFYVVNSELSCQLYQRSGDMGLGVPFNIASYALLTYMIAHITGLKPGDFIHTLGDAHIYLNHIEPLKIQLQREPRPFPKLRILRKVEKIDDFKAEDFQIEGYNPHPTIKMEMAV
Sequence of wild-type B-raf protein (P15056 whole entry): as the sequence (P15056 whole entry V600E) above, with E600V counted along it

`Cc1nc2ccc(CN(C)c3ccc(C(=O)N[C@@H](CCC(=O)O)C(=O)O)s3)cc2c(=O)[nH]1` [raltitrexed] was tested, and the “change of melting temperature of TS” value [1] was “increased melting temperature”.

`Cn1c(NC[C@@H](N)Cc2ccccc2)nc(-c2ccncc2)c(-c2ccc3ccccc3c2)c1=O` [AMG-548] was tested, and the “screen outcome (increase of the AlphaScreen signal vs DMSO-only controls)” value (p38α [2]) was “stabilizing hits”, the “apparent Tagg value (average±s.d.)” value (p38α [3]; AlphaScreen detection, no inhibitor 46.7±0.7) was 59.2±0.9 °C and the “apparent Tagg value (average±s.d.)” value (p38α [3]; western blot detection, no inhibitor 48±0.8) was 60.6±1.0 °C.

For `Oc1cccc(-c2nc(N3CCOCC3)c3sccc3n2)c1` [Compound 15e, 3-[4-(4-Morpholinyl)thieno[3,2-d]pyrimidin-2-yl]-phenol], the “melting temperature after addition of inhibitor” value [4] was ~58 °C.

In the case of `CO[C@@H]1[C@H](OC(=O)NC(=O)CCl)CC[C@]2(CO2)[C@H]1[C@@]1(C)O[C@@H]1CC=C(C)C` [TNP-470], the “shift in melting temperature” value [5] is reported as 18 °C, the “melting temperature after addition of ligand” value ([5]; without ligand 62° C.) is reported as 80 °C and the “shift in melting temperature” value [6] is reported as 14 °. For the same molecule, the “melting temperature after addition of ligand” value ([6]; without ligand 66° C.) was 80 °C.

For `Cc1cnc(Nc2ccc(F)cc2Cl)nc1-c1c[nH]c(C(=O)N[C@H](CO)c2cccc(Cl)c2)c1` [ERK 11e], the “screen outcome (increase of the AlphaScreen signal vs DMSO-only controls)” value (p38α [2]) was “cannot be distinguished from the rest of the inactive compounds”, the “shift of the apparent Tagg (response)” value (p38α [3]; 20 μM) was “lack of a substantial response” and the “thermal stabilization of p38α within the tested concentration range” value (p38α [7]) was “did not result in any stabilization”.

With `CN(C)CCOc1ccc(-c2nc(-c3ccncc3)c(-c3ccc4c(c3)CC/C4=N\O)[nH]2)cc1` [SB590885] the “increase in the melting temperature” value [8] was ~6 °C and the “increase in the melting temperature” value (wild-type B-raf protein) was 3 °C.
